Two compounds from PMC6197744, “Triazolo[4,5-d]pyrimidines as Validated General Control Nonderepressible 2 (GCN2) Protein Kinase Inhibitors Reduce Growth of Leukemia Cells” (Computational and Structural Biotechnology Journal, 2018) can be followed below.

≈ marks a conversion by molar mass, not a printed value.

The subject of one series is 4E-BP mRNA. Kind of series: qRT-PCR of 4E-BP mRNA in Drosophila S2 cells. Format: cell-based. Particulars: amino acid deprived, 10 μM, 6 h, vs DMSO control. An excerpt:
It is known that under normal nutrient conditions the cap-dependent translational inhibitor 4E-BP is not expressed. However stress such as nutrient deprivation is known to trigger the transcriptional induction of 4E-BP. It has recently been shown that GCN2 and its downstream transcription factor, ATF4, mediate 4E-BP induction under amino acid deprivation in Drosophila, S2 cells. To further investigate the downstream effects of 1 and 2 on the amino acid deprivation GCN2 − ATF4 − 4E-BP pathway, the levels of 4E-BP mRNA transcript were monitored. We performed qRT-PCR on Drosophila S2 cells.
Drosophila S2 cell lines were cultured at 25 °C in Schneider's medium (Life Technologies, 21,720,024) and supplemented with 1% penicillin-streptomycin (Life Technologies, 15,140,122). For amino acid deprivation experiments, Schneider's medium lacking amino acids (USBiological Life Sciences, S0100-03) was used. Cells were treated for 6 h with 10 μM inhibitor concatenation or DMSO.
Total RNA was extracted with TRIzol Reagent (Invitrogen, USA). For cDNA synthesis, 200 ng of RNA was transcribed using SuperScript First-Strand Synthesis Kit (Invitrogen, USA). PCR amplification was performed for 25 cycles using taq polymerase (Roche) according to manufacturer's protocol. […] Results were expressed as the relative expression of mRNA levels detected in control samples and were calculated using the ΔΔCt method.

Another series relates to MALME-3M. Kind of series: NCI-60 one-dose screen. Type of series: cell-based, human. Particulars: 48 h; for inhibition at 10 µM: Homo sapiens, Melanoma MALME-3M, read-out: Percent growth inhibition; for increase in cell growth: melanoma cell line MALME-3 M, 10 μM. The procedure: Compounds 1 and 2 were submitted to the National Cancer Institute NCI-60 Tumor Cell Screening Program (NCI number 800,700 and 800,701, respectively) for evaluation against the 60 cell line NCI panel at a single dose of 10 μM. […] Leukemia and breast cancer cell lines comprised the only cancer groups that were uniformly sensitive to both 1 and 2, with the greatest sensitivity seen in the leukemia SR cell line.
Compounds 1 and 2 were submitted to the NCI for growth inhibition screening against its panel of 60 cancer cell lines. The NCI screening protocol has extensively been described [[53], [54], [55], [56]]. Briefly, cancerous cell lines were grown in RPMI 1640 medium containing 5% fetal bovine serum and 2 mM L-glutamine. Depending on the doubling time of each cell line, 5000–40,000 cells were seeded in 96-well plates for 24 h. Cells were then treated with compounds 1 or 2 at a concentration of 10 μM and incubated for 48 h at 37 °C in a humidified atmosphere containing 5% CO2. The cells were then fixed and stained with sulforhodamine B (SRB) to determine their viability. The data were analyzed using a program called COMPARE to determine the percent growth inhibition of each compound.

The nature of a further series: Kinetic solubility assay. Type of series: physicochemical. Particulars: for solubility (in words): PBS pH 7.4; for solubility at 2 h: aqueous buffer, kinetic from dmso stock, PBS pH 7.4, 25 °C. The protocol:
Compound solubility was determined in PBS at pH 7.4 by Pharmaron, Inc. (Beijing, China). Briefly, all compounds and control solutions were prepared in DMSO at concentrations of 10 mM. Diclofenac was used as a positive control. 10 μL or 30 μL of each compound was added into a 96-well plate, followed by adding 990 μL or 970 μL, respectively, of PBS at pH 7.4. A stir stick was added to each well and wells were sealed using a molded PTDE/SIL 96-Well Plate Cover. […] After incubation the samples were transferred into the filter plate and filtered by Vacuum Manifold. The filtered samples were diluted with methanol to obtain 3 μM standards (STD). The samples were analyzed by LC-MS/MS against a standard of known concentration in DMSO. The solubility values of duplicate test compounds were calculated in Microsoft Excel using the following equation, where DF means dilution factor: Sample=AREASample×INJVOLStd×DFSample×STD/AREAStd×INJVOLSample

The next series relates to HL-60(TB). Kind of series: NCI-60 one-dose screen. Type of series: cell-based. Particulars: Homo sapiens, HL-60, 48 h, read-out: Percent growth inhibition.

Usually inhibition stands for the relative decrease from the control value, in per cent. The solubility is the concentration that dissolves in the medium under given conditions. Regarding `CCn1cc(Nc2ncc3nnn(-c4ccc(C(=O)OC)cc4)c3n2)cn1` [Compound 1, Methyl 4-(5-((1-ethyl-1H-pyrazol-4-yl)amino)-3H-[1,2,3]triazolo[4,5-d]pyrimidin-3-yl)benzoate], the “relative 4E-BP mRNA levels” value in the series with 4E-BP mRNA is “decreased”. Moreover, in the series with MALME-3M, the inhibition at 10 µM was -27.7% and the “increase in cell growth” value is on record as 27.7%. In addition, in the series “Kinetic solubility assay”, the “solubility (in words)” value is given as “poor” and the solubility at 2 h worked out at 0.65 µM (≈ 0.237 µg/mL). The inhibition at 10 µM in the series on HL-60(TB) amounted to 8.55%.
As for `CCOc1ccc(-n2nnc3cnc(Nc4cnn(CC)c4)nc32)cc1` [Compound 2, 3-(4-Ethoxyphenyl)-N-(1-ethyl-1H-pyrazol-4-yl)-3H-[1,2,3]triazolo[4,5-d]pyrimidin-5-amine], the “relative 4E-BP mRNA levels” value with 4E-BP mRNA is recorded as “decreased”. Further, in the series with MALME-3M, the inhibition at 10 µM is -37.2% and the “increase in cell growth” value is on record as 37.2%. For the same compound, in the series “Kinetic solubility assay”, the “solubility (in words)” value is given as “poor” and the solubility at 2 h turned out to be 0.31 µM (≈ 0.109 µg/mL). Further, the inhibition at 10 µM in the series on HL-60(TB) was 24.6%.
